According to patent publication US9815835B2, “Substituted polycyclic carbamolypyridone derivative” (priority 2009, dated 2017):

System: influenza virus
Assay: microbe, parasite or virus in culture
Assay type: cell-based, influenza virus (MDBK or MDCK cells)
Details: unidentified influenza virus, 72 h, read-out: CPE EC50

Row | Compound | EC50
1 | COCCCC1N(C(C)C)C(=O)c2c(O)c(=O)ccn2N1C1c2cccc(F)c2CCc2c(F)cccc21 (centres unmarked) [Example 523] | 14 nM

Same assay, conditions: unidentified influenza virus, 72 h, read-out: CPE EC50, effective concentration to achieve 50% CPE inhibition, 3 days incubation, WST-8

Row | Compound | EC50
2 | CC(N1CN(C2c3ccccc3CSc3c(F)cccc32)n2ccc(=O)c(O)c2C1=O)C(F)(F)F (centres unmarked) [Example 342] | 26 nM
3 | CC(C)N1CN(C2c3ccccc3CSc3c(F)cccc32)n2ccc(=O)c(O)c2C1=O (centres unmarked) [Example 351] | 19 nM
4 | CN1CN(C2c3ccccc3CSc3c(F)cccc32)n2ccc(=O)c(O)c2C1=O (centres unmarked) [Example 354] | 83 nM
5 | CC(CO)N1CN(C2c3ccccc3CCc3ccccc32)n2ccc(=O)c(O)c2C1=O (centres unmarked) [Example 362] | 67 nM
6 | O=C1c2c(O)c(=O)ccn2N(C2c3ccccc3CCc3ccccc32)CN1CC(O)CO (centres unmarked) [Example 364] | 515 nM
7 | CC(C)C[C@H](CO)N1CN(C2c3ccccc3CSc3ccccc32)n2ccc(=O)c(O)c2C1=O (some centres unmarked) [Example 374] | 154 nM
8 | CC(C)C[C@@H](CO)N1CN(C2c3ccccc3CSc3ccccc32)n2ccc(=O)c(O)c2C1=O (some centres unmarked) [Example 377] | 22 nM
9 | CC(C)(C)[C@@H](CO)N1CN(C2c3ccccc3CSc3ccccc32)n2ccc(=O)c(O)c2C1=O (some centres unmarked) [Example 380] | 18 nM
10 | CC(C)(C)[C@H](CO)N1CN(C2c3ccccc3CSc3ccccc32)n2ccc(=O)c(O)c2C1=O (some centres unmarked) [Example 381] | 34 nM
11 | O=C1c2c(O)c(=O)ccn2N(C2c3ccccc3CSc3c(Cl)cccc32)CN1CCO (centres unmarked) [Example 382] | 94 nM
12 | CC(C)N1CN(C2c3ccccc3COc3ccccc32)n2ccc(=O)c(O)c2C1=O (centres unmarked) [Example 391] | 71 nM
13 | COCCN1CN(C2c3ccccc3COc3cc(F)ccc32)n2ccc(=O)c(O)c2C1=O (centres unmarked) [Example 397] | 77 nM
14 | COCCN1CN(C2c3ccccc3COc3ccc(F)cc32)n2ccc(=O)c(O)c2C1=O (centres unmarked) [Example 401] | 133 nM
15 | COCCN1CN(C2c3cc(F)ccc3COc3cc(F)ccc32)n2ccc(=O)c(O)c2C1=O (centres unmarked) [Example 402] | 81 nM
16 | CC(N1CN(C2c3ccccc3COc3c(F)cccc32)n2ccc(=O)c(O)c2C1=O)C(F)(F)F (centres unmarked) [Example 406] | 22 nM
17 | CC(C)N1CN(C2c3ccc(Cl)cc3COc3ccccc32)n2ccc(=O)c(O)c2C1=O (centres unmarked) [Example 409] | 29 nM
18 | C[C@@H](N1CN(C2c3ccccc3COc3ccc(F)cc32)n2ccc(=O)c(O)c2C1=O)C(F)(F)F (some centres unmarked) [Example 410] | 14 nM
19 | C[C@@H](N1CN([C@H]2c3ccccc3CSc3ccccc32)n2ccc(=O)c(O)c2C1=O)C(F)(F)F [Example 413] | 5 nM
20 | C[C@H](N1CN([C@@H]2c3ccccc3CSc3ccccc32)n2ccc(=O)c(O)c2C1=O)C(F)(F)F [Example 415] | 22 nM
21 | C[C@H](N1CN([C@H]2c3ccccc3CSc3ccccc32)n2ccc(=O)c(O)c2C1=O)C(F)(F)F [Example 416] | 19 nM
22 | C[C@@H](N1CN([C@H]2c3ccccc3COc3c(F)cccc32)n2ccc(=O)c(O)c2C1=O)C(F)(F)F [Example 425] | 47 nM
23 | C[C@@H](N1CN([C@H]2c3ccccc3SCc3cccc(Cl)c32)n2ccc(=O)c(O)c2C1=O)C(F)(F)F [Example 430] | 29 nM
24 | C[C@H](N1CN([C@@H]2c3ccccc3SCc3cccc(Cl)c32)n2ccc(=O)c(O)c2C1=O)C(F)(F)F [Example 431] | 11 nM
25 | C[C@@H](N1CN([C@H]2c3ccc(C(F)(F)F)cc3CSc3ccccc32)n2ccc(=O)c(O)c2C1=O)C(F)(F)F [Example 432] | 62 nM
26 | C[C@@H](N1CN([C@@H]2c3cc(Cl)ccc3CSc3ccccc32)n2ccc(=O)c(O)c2C1=O)C(F)(F)F [Example 443] | 4 nM
27 | C[C@@H](N1CN([C@H]2c3ccccc3CSc3c(Cl)cccc32)n2ccc(=O)c(O)c2C1=O)C(F)(F)F [Example 450] | 14 nM

Row | Compound | EC50
28 | C[C@H](N1CN([C@H]2c3ccccc3CSc3c(F)cccc32)n2ccc(=O)c(O)c2C1=O)C(F)(F)F [Example 453] | 49 nM
29 | C[C@@H](N1CN([C@H]2c3ccccc3CSc3ccc(Cl)cc32)n2ccc(=O)c(O)c2C1=O)C(F)(F)F [Example 455] | 71 nM
30 | C[C@@H](N1CN([C@H]2c3ccccc3CSc3cc(F)ccc32)n2ccc(=O)c(O)c2C1=O)C(F)(F)F [Example 458] | 14 nM
31 | C[C@H](N1CN([C@H]2c3ccccc3CSc3ccc(F)cc32)n2ccc(=O)c(O)c2C1=O)C(F)(F)F [Example 461] | 74 nM
32 | C[C@@H](N1CN([C@H]2c3cc(F)ccc3CSc3ccc(F)cc32)n2ccc(=O)c(O)c2C1=O)C(F)(F)F [Example 462] | 11 nM
33 | C[C@H](N1CN([C@H]2c3ccccc3CSc3ccc(Cl)cc32)n2ccc(=O)c(O)c2C1=O)C(F)(F)F [Example 475] | 441 nM
34 | CC(CN(C)C)N1CN(C2c3ccccc3CCc3ccccc32)n2ccc(=O)c(O)c2C1=O (centres unmarked) [Example 479] | 64 nM
35 | CC(CN(C)C)N1CN(C2c3ccccc3CSc3ccccc32)n2ccc(=O)c(O)c2C1=O (centres unmarked) [Example 480] | 84 nM
36 | CC(CN(C)C)N1CN(C2c3ccccc3CSc3c(Cl)cccc32)n2ccc(=O)c(O)c2C1=O (centres unmarked) [Example 481] | 86 nM
37 | CC(CN1CCOCC1)N1CN(C2c3ccccc3CSc3ccccc32)n2ccc(=O)c(O)c2C1=O (centres unmarked) [Example 483] | 27 nM
38 | CC(C)N1CN(C2c3ccccc3CCc3ccccc32)n2cc(C(=O)O)c(=O)c(O)c2C1=O [Example 491] | 99 nM
39 | CC(C)N1CN(C2c3ccccc3CSc3ccccc32)n2cc(C(=O)O)c(=O)c(O)c2C1=O (centres unmarked) [Example 492] | 160 nM
40 | CCN1C(=O)c2c(O)c(=O)ccn2C(C2c3ccccc3CSc3ccccc32)N1CC (centres unmarked) [Example 502] | 142 nM
41 | O=C(O)c1cn2c(c(O)c1=O)C(=O)N1CCCCN1C2C(c1ccccc1)c1ccccc1 (centres unmarked) [Example 507] | 197 nM
42 | CSCC1N(C(C)C)C(=O)c2c(O)c(=O)ccn2N1C1c2ccccc2CCc2ccccc21 (centres unmarked) [Example 514] | 18 nM
43 | CCCC1N(C(C)C)C(=O)c2c(O)c(=O)ccn2N1C1c2ccccc2CCc2ccccc21 (centres unmarked) [Example 518] | 24 nM
44 | COCCCC1N(C(C)C)C(=O)c2c(O)c(=O)ccn2N1C1c2ccccc2CCc2ccccc21 (centres unmarked) [Example 522] | 14 nM
45 | COCCCC1N(C(C)C)C(=O)c2c(O)c(=O)ccn2N1C1c2ccc(F)cc2CCc2cc(F)ccc21 (centres unmarked) [Example 526] | 19 nM
46 | CC(C)N1C(=O)c2c(O)c(=O)ccn2N(C2c3ccccc3CCc3ccccc32)C1CCN (centres unmarked) [Example 533] | 391 nM
47 | CC(C)N1C(=O)c2c(O)c(=O)ccn2N(C2c3ccccc3CCc3ccccc32)C1CCCN (centres unmarked) [Example 534] | 1200 nM
48 | CC(C)N1C(=O)c2c(O)c(=O)ccn2N(C2c3ccccc3CCc3ccccc32)C1CCN(C)C (centres unmarked) [Example 537] | 22 nM
49 | CCN(CC)CC1N(CCO)C(=O)c2c(O)c(=O)ccn2N1C1c2ccccc2CCc2ccccc21 (centres unmarked) [Example 550] | 42 nM
50 | CN(C)CC1N(CCO)C(=O)c2c(O)c(=O)ccn2N1C1c2ccccc2CCc2ccccc21 (centres unmarked) [Example 551] | 107 nM
51 | COCCN1C(=O)c2c(O)c(=O)c(C(=O)O)cn2N(C2c3ccccc3CCc3ccccc32)C1CCSC (centres unmarked) [Example 556] | 412 nM
52 | COCCN1C[C@H](C(c2ccccc2)c2ccccc2)n2cc(Cl)c(=O)c(O)c2C1=O [Example 558] | 541 nM
53 | N#Cc1ccccc1N1CC(C2c3ccccc3CCc3ccccc32)n2ccc(=O)c(O)c2C1=O (centres unmarked) [Example 568] | 2810 nM
